{"source": "ChEMBL document CHEMBL2073763", "about": "“Functional involvement of rat organic anion transporter 3 (rOat3; Slc22a8) in the renal uptake of organic anions” (J Pharmacol Exp Ther, 2002)", "assay_type_in_all_cases": "functional, cell-based", "key": {"[1]": {"target": "T1, Solute carrier family 22 member 6 (Rattus norvegicus, UniProt O35956)", "T1 sequence (O35956 whole entry)": "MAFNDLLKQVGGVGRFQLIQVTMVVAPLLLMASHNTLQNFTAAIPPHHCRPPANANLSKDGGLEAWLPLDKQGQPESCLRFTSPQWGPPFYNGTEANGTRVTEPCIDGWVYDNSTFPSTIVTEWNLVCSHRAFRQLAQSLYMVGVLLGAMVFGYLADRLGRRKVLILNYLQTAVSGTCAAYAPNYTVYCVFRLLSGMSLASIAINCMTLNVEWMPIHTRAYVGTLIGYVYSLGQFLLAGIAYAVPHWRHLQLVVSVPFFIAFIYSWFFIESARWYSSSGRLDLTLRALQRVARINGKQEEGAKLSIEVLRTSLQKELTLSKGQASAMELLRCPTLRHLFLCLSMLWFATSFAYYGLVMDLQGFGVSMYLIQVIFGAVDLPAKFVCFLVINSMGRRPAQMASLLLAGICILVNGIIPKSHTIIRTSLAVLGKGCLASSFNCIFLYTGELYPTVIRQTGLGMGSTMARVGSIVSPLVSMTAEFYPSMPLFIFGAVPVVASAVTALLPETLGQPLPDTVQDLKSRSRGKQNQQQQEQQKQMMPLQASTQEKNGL", "assay": "TP_TRANSPORTER: inhibition of PAH uptake in Oat1-expressing LLC-PK1 cells"}, "[2]": {"target": "T2, Organic anion transporter 3 (Rattus norvegicus, UniProt Q9R1U7)", "T2 sequence (Q9R1U7 whole entry)": "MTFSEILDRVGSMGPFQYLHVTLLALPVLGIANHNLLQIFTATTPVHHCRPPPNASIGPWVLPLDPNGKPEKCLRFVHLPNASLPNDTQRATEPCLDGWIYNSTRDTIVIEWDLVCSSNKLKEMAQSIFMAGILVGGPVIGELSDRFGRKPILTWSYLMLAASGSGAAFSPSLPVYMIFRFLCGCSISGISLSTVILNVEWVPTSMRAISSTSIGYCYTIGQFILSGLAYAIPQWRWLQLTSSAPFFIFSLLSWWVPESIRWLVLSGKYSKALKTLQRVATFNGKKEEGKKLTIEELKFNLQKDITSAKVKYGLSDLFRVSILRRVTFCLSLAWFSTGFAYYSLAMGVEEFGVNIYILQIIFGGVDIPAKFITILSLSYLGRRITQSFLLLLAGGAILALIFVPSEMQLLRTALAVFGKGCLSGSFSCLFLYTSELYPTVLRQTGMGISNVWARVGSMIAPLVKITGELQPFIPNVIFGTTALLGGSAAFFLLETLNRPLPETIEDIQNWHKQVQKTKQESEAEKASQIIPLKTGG", "assay": "TP_TRANSPORTER: inhibition of Pravastatin uptake in Oat3-expressing LLC-PK1 cells"}, "[3]": {"substrate": "CC[C@H](C)C(=O)O[C@H]1C[C@H](O)C=C2C=C[C@H](C)[C@H](CC[C@@H](O)C[C@@H](O)CC(=O)O)[C@H]21", "assay": "TP_TRANSPORTER: uptake in Oat3-expressing LLC-PK1 cells"}}, "data": [{"molecule": "CC[C@H](C)C(=O)O[C@H]1C[C@H](O)C=C2C=C[C@H](C)[C@H](CC[C@@H](O)C[C@@H](O)CC(=O)O)[C@H]21", "note": "[PRAVASTATIN]", "values": [{"measurement": "Ki", "setting": "[1]", "result": 1150, "unit": "µM"}]}, {"molecule": "O=C1OC(c2ccc(OS(=O)(=O)O)cc2)(c2ccc(OS(=O)(=O)O)cc2)c2c(Br)ccc(Br)c21", "note": "[DIBROMOSULFOPHTHALEIN]", "values": [{"measurement": "Ki", "setting": "[2]", "result": 3.09, "unit": "µM"}, {"measurement": "Ki", "setting": "[1]", "result": 2.74, "unit": "µM"}]}, {"molecule": "CC1(C)S[C@@H]2[C@H](NC(=O)Cc3ccccc3)C(=O)N2[C@H]1C(=O)O", "note": "[PENICILLIN G]", "values": [{"measurement": "Ki", "setting": "[2]", "result": 52.8, "unit": "µM"}]}, {"molecule": "Nc1ccc(C(=O)NCC(=O)O)cc1", "note": "[AMINOHIPPURIC ACID]", "values": [{"measurement": "Ki", "setting": "[2]", "result": 1350, "unit": "µM"}]}, {"molecule": "Organic anion transporter 3 (Rattus norvegicus) (protein) MTFSEILDRVGSMGPFQYLHVTLLALPVLGIANHNLLQIFTATTPVHHCRPPPNASIGPWVLPLDPNGKPEKCLRFVHLPNASLPNDTQRATEPCLDGWIYNSTRDTIVIEWDLVCSSNKLKEMAQSIFMAGILVGGPVIGELSDRFGRKPILTWSYLMLAASGSGAAFSPSLPVYMIFRFLCGCSISGISLSTVILNVEWVPTSMRAISSTSIGYCYTIGQFILSGLAYAIPQWRWLQLTSSAPFFIFSLLSWWVPESIRWLVLSGKYSKALKTLQRVATFNGKKEEGKKLTIEELKFNLQKDITSAKVKYGLSDLFRVSILRRVTFCLSLAWFSTGFAYYSLAMGVEEFGVNIYILQIIFGGVDIPAKFITILSLSYLGRRITQSFLLLLAGGAILALIFVPSEMQLLRTALAVFGKGCLSGSFSCLFLYTSELYPTVLRQTGMGISNVWARVGSMIAPLVKITGELQPFIPNVIFGTTALLGGSAAFFLLETLNRPLPETIEDIQNWHKQVQKTKQESEAEKASQIIPLKTGG", "values": [{"measurement": "Km", "setting": "[3]", "result": 13.4, "unit": "µM"}]}]}
